# From ChEMBL document CHEMBL5441456, “ASAP - SARS-CoV-2 nsp3 macrodomain dose response” (2024)
# pIC50: −log10 of the molar value. Several values for one entry are separate records, joined by “and”; a condition that tells them apart may be missing. Equal entries are not always repeated.
# Target: Replicase polyprotein 1ab (Severe acute respiratory syndrome coronavirus 2, UniProt P0DTD1)
# Assay: Functional biochemical assay to identify treatments for viral infectious disease that targets SARS-COV-2 nsp3 macrodomain, whereby the mechanism of action displaces an ADP-Ribose modified peptide from the binding site. Utilizing a time-resolved fluorescence method to measure binding by reading the emitted fluorescence intensity in two wavelengths.
row,Structure (SMILES),pIC50
1,CC(C)[C@@H](Nc1ncnc2[nH]c(-c3cnn(CC(N)=O)c3)cc12)c1ccc2c(c1)OCCO2,6.42 and 6.44 and 6.61 and 6.59
2,COC(=O)c1c[nH]c(-c2cc(N[C@@H](c3ccc4c(c3)OCCO4)C(C)C)ncn2)c1,< 4.00
3,CC(C)[C@@H](Nc1ncnc2[nH]ccc12)c1ccc2c(c1)OCC(=O)N2,4.57 and 4.62
4,CC(C)(C)[C@@H](Nc1ncnc2[nH]ccc12)c1ccc2c(c1)OCCO2,5.91 and 5.98
5,O=C(O)[C@@H](CC1CCCCC1)Nc1ncnc2[nH]ccc12,4.13 and 4.15
6,CNc1ccc([C@@H](CC(=O)O)NC(=O)c2ncnc3[nH]ccc23)cc1,4.54 and 4.46
7,Cc1ccc2c(NC(=O)c3ccc(NC(=O)NC4CC4)cc3)c(C(=O)O)sc2n1,< 4.00
8,Cn1c(C(=O)O)c(NC(=O)c2ccc(NC(=O)NC3CC3)cc2)c2cccnc21,< 4.00
9,COc1ccc([C@@H]2CCN(c3ncnc4[nH]ccc34)C2)cc1,< 4.00
10,c1nc(Nc2ccc3c(c2)OCO3)c2cc[nH]c2n1,< 4.00
11,CNC(=O)c1ccc([C@@H](CC(=O)O)NC(=O)c2ncnc3[nH]ccc23)cc1,5.04 and 4.87
12,CC(C)[C@@H](Nc1ncnc2[nH]c3cc(F)ccc3c12)c1ccc2c(c1)OCCO2,5.07 and 5.00
13,CC(C)[C@@H](Nc1cc(-c2c[nH]cn2)ncn1)c1ccc2c(c1)OCCO2,< 4.00
14,Cc1[nH]nc2ncc(C(=O)N[C@@H](c3ccc4c(c3)OCCO4)C(C)C)cc12,< 4.00
15,COCc1noc(C)c1-c1cc2c(N[C@@H](c3ccc4c(c3)OCCO4)C(C)C)ncnc2[nH]1,< 4.00
16,CC(C)[C@@H](Nc1ncnc2[nH]c(-c3cnoc3)cc12)c1ccc2c(c1)OCCO2,4.52 and < 4.00
17,CC(C)[C@@H](Nc1ncnc2c1cnn2C)c1ccc2c(c1)OCCO2,< 4.00
18,C[C@@H](Nc1ncnc2[nH]ccc12)[C@@H]1CCOC1,< 4.00
19,CC(C)[C@@H]1C[C@H](Nc2[nH]cnc3nccc2-3)CCO1,< 4.00
20,CC(C)[C@@H]1C[C@@H](Nc2ncnc3[nH]ccc23)CCO1,< 4.00
21,COc1cccc([C@@H](CC(=O)O)NC(=O)c2ncnc3[nH]ccc23)c1,4.79 and 4.66
22,O=C(O)[C@@H]1C[C@@H]2OCC[C@@H]2N1c1ncnc2[nH]ccc12,< 4.00
23,O=C(O)C[C@@H](NC(=O)c1ncnc2[nH]ccc12)c1ccc(NCC2=NO[C@@H]3COC[C@H]23)cc1,5.14 and 5.08
24,COc1ccc(CN(c2ncnc3[nH]ccc23)C(C)C)cc1OC,< 4.00
25,CS(=O)(=O)Nc1cccc([C@@H](CC(=O)O)NC(=O)c2ncnc3[nH]ccc23)c1,4.30 and 4.41 and 4.40
26,CC(=O)Nc1ccc([C@@H](CC(=O)O)NC(=O)c2ncnc3[nH]ccc23)cc1,4.84

row,Structure (SMILES),pIC50
1,CC(C)[C@@H](Nc1ccc(NC(=O)NC2CC2)cc1)c1ccc2c(c1)OCCO2,< 4.00
2,Cc1[nH]c2ncnc(NC(=O)c3ccncc3)c2c1C,< 4.00
3,O=C(Nc1ccc(C(=O)Nc2c(C(=O)O)sc3ccncc23)cc1)NC1CC1,< 4.00
4,c1nc(N[C@@H](c2ccc3c(c2)OCCO3)C2CCC2)c2cc[nH]c2n1,5.28 and 5.19
5,CC(C)[C@@H](Nc1ncnc2[nH]ccc12)c1cnn(C)c1,5.41 and 5.50
6,Cc1nnc(Nc2ccc(C(=O)N[C@@H]3c4cccc(O)c4C[C@H]3C(=O)O)cc2)o1,4.60 and 4.59
7,N=C(N)C[C@@H](NC(=O)c1ncnc2[nH]ccc12)c1ccc(Br)cc1,< 4.00
8,CNC(=N)C[C@@H](NC(=O)c1ncnc2[nH]ccc12)c1ccc(Br)cc1,< 4.00
9,O=C(Nc1cccc2c(C(=O)N[C@H]3c4ccccc4C[C@H]3C(=O)O)c[nH]c12)NC1CC1,5.11 and 5.18
10,CC(C)[C@@H](Nc1ncnc2[nH]ccc12)c1cccc(C(F)(F)F)c1,4.08 and 4.11
11,C[C@@H](Nc1ncnc2[nH]ccc12)[C@@H]1CCCCO1,< 4.00
12,Cc1ncc(C(=O)Nc2ncnc3[nH]c(C)c(C)c23)cn1,< 4.00
13,Cc1nc2nc[nH]c(NC(=O)c3ccc(NC(=O)NC4CC4)nc3)c-2c1C,< 4.00
14,O=C(O)C[C@@H](NC(=O)c1ncnc2[nH]ccc12)c1ccc(Nc2nnc(C3CC3)o2)cc1,5.42 and 5.34
15,O=C(O)[C@@H]1[C@@H](c2ccccc2)CCN1c1ncnc2[nH]ccc12,< 4.00
16,COc1ccc(Nc2ncnc3[nH]ccc23)cc1OC,< 4.00
17,Cc1nn(CC(C)C)c(Cl)c1[C@@H]1CCCN1c1ncnc2[nH]ccc12,< 4.00
18,O=C(Nc1ccc(C(=O)Nc2c(C(=O)O)oc3cc(Br)ccc23)cc1)NC1CC1,< 4.00
19,CC(C)Cc1ccc2c(NC(=O)c3ccc(NC(=O)NC4CC4)cc3)c(C(=O)O)sc2n1,< 4.00
20,COc1ccc([C@@H](Nc2ncnc3[nH]ccc23)C(C)C)cc1OC,< 4.00
21,FC(F)[C@@H](Nc1ncnc2[nH]ccc12)c1ccc2c(c1)OCCO2,4.80 and 4.64
22,O[C@@H]1CCCC[C@@H]1Nc1ncnc2[nH]ccc12,< 4.00 and 4.02
23,O=C(Nc1cccc2c(C(=O)Nc3cc4c(cc3C(=O)O)OCCO4)c[nH]c12)NC1CC1,< 4.00
24,CNC(=O)c1cccc([C@@H](CC(=O)O)NC(=O)c2ncnc3[nH]ccc23)c1,4.73 and 4.76
25,CC(C)[C@@H](Nc1ncnc2[nH]ccc12)c1ccc2c(c1)C(=O)NCC2,5.65 and 5.61
26,O=C(O)C[C@@H](NC(=O)c1ncnc2[nH]c3cc(F)ccc3c12)c1ccc(Br)cc1,6.00

row,Structure (SMILES),pIC50
1,CC(C)[C@@H](Nc1ncc2c(n1)CCCC2)c1ccc2c(c1)OCCO2,< 4.00
2,CS(=O)(=O)Nc1ccc([C@@H](CC(=O)O)NC(=O)c2ncnc3[nH]ccc23)cc1,4.92 and 5.00
3,CC(C)[C@@H](Nc1cc(-c2cc[nH]n2)ncn1)c1ccc2c(c1)OCCO2,< 4.00
4,CC(C)[C@@H](Nc1cnc(C(=O)O)cn1)c1ccc2c(c1)OCCO2,< 4.00
5,c1nc(N[C@@H](c2ccc3c(c2)OCCO3)C2CC2)c2cn[nH]c2n1,4.75 and 4.70
6,O=C(O)C[C@@H](NC(=O)c1ccc(NC(=O)NC2CC2)cc1)c1cccnc1,4.11 and 4.17
7,c1nc(N2CCC[C@@H]2c2ccc3c(c2)OCCO3)c2cc[nH]c2n1,< 4.00
8,O=C(N[C@@H](Cc1nn[nH]n1)c1ccc(Br)cc1)c1ncnc2[nH]ccc12,5.72 and 5.67
9,CNc1cccc([C@@H](CC(=O)O)NC(=O)c2ncnc3[nH]ccc23)c1,4.18 and 4.59
10,CC(C)[C@@H](NC(=O)c1cnn(-c2ccccc2)n1)c1ccc2c(c1)OCCO2,< 4.00
11,O=C(O)C[C@@H](NC(=O)c1ccc(NC(=O)NC2CC2)cc1)c1cccc(C(F)F)c1,4.12 and 4.14
12,c1nc(NCc2ccc3c(c2)OCCO3)c2cc[nH]c2n1,4.10 and 4.03
13,CC(C)[C@@H](Nc1ncnc2[nH]c(-c3cc[nH]n3)cc12)c1ccc2c(c1)OCCO2,5.74 and 5.73
14,O=C(O)C[C@H](NC(=O)c1ccc(NC(=O)NC2CC2)cc1)c1cccnc1,4.30 and 4.23
15,Cc1[nH]c2ncnc(NC(=O)c3ccc(-n4cccc4)nc3)c2c1C,< 4.00
16,COc1ccc([C@@H](Nc2ncnc3[nH]ccc23)C(C)C)cc1,5.20 and 5.09
17,COc1ccc([C@@H](CC(=O)O)NC(=O)c2cc3cccc(NC(=O)NC4CC4)c3[nH]2)cc1,< 4.00
18,O=C(Nc1cccc2c(C(=O)Nc3cc4c(cc3CO)OCCO4)c[nH]c12)NC1CC1,< 4.00
19,CC(=O)Nc1cccc([C@@H](CC(=O)O)NC(=O)c2ncnc3[nH]ccc23)c1,4.59 and < 4.91 and 4.68
20,O=C(O)C[C@@H](NC(=O)c1ccc(NC(=O)NC2CC2)cc1)c1cccc(O)c1,5.04 and 5.06
21,c1nc(N[C@@H](C2CC2)[C@@H]2CCCOC2)c2cc[nH]c2n1,< 4.00
22,C[C@@H]1Oc2ccc(Nc3ncnc4[nH]ccc34)cc2NC1=O,< 4.00
23,O=C(O)C[C@@H](NC(=O)c1ccc(NC(=O)NC2CC2)cc1)C1CCOCC1,< 4.00
24,O=C(O)C[C@@H](NC(=O)c1c[nH]c2ncncc12)c1ccc(NCC2=NO[C@@H]3COC[C@H]23)cc1,< 4.00
25,Cc1nnc(Nc2ccc([C@@H](CC(=O)O)NC(=O)c3ncnc4[nH]ccc34)cc2)o1,4.91 and 5.00
26,O=C(O)[C@@H](Nc1ncnc2[nH]ccc12)c1ccc2c(c1)OCCO2,5.03 and 5.10

row,Structure (SMILES),pIC50
1,CO[C@@H]1C[C@@H](C(=O)O)N(c2ncnc3[nH]ccc23)C1,< 4.00
2,CC(C)[C@@H](Nc1ncnc2[nH]ccc12)c1ccncc1,< 4.91 and 4.47
3,CC(C)[C@@H](Nc1ncnc2[nH]ccc12)c1ccc2c(c1)N(C)CCO2,4.56 and 4.50
4,Cn1ncc2c(N[C@@H](c3ccc4c(c3)OCCO4)C3CC3)ncnc21,< 4.00
5,COc1ccc([C@@H](CC(=O)O)NC(=O)c2ccc(NC(=O)NC3CC3)cc2)cc1,4.24 and 4.42
6,COc1cccc([C@@H](Nc2ncnc3[nH]ccc23)C(C)C)c1,4.59 and 4.40
7,O[C@H]1CCCC[C@@H]1Nc1ncnc2[nH]ccc12,4.26 and 4.19
8,CC(C)[C@@H](Nc1ncnc2[nH]ccc12)C(=O)O,4.81 and 4.77 and 4.68 and 4.69
9,O=C(Nc1ccc2c(C(=O)N[C@@H]3c4ccccc4C[C@@H]3C(=O)O)cnn2c1)NC1CC1,4.20 and 4.31
10,C[C@@H](Nc1ncnc2[nH]ccc12)[C@@H]1CCS(=O)(=O)C1,< 4.00
11,c1ccc2c(c1)OCC[C@@H]2Nc1ncnc2[nH]ccc12,< 4.00
12,O=C(Nc1cccc2c(C(=O)Nc3ccccc3C(=O)O)c[nH]c12)NC1CC1,4.70
13,O=C(O)C[C@@H](NC(=O)c1ccc(NC(=O)NC2CC2)cc1)c1cccc(F)c1,4.56 and 4.49
14,CC(C)[C@@H](NC(=O)c1ccccn1)c1ccc2c(c1)OCCO2,< 4.00
15,CC(C)[C@@H](NC(=O)c1ccnc(-n2ccnc2)c1)c1ccc2c(c1)OCCO2,< 4.00
16,NC(=O)[C@@H](NC(=O)c1ncnc2[nH]ccc12)c1ccc(Br)cc1,< 4.00
17,COc1ccc([C@H](CC(=O)O)NC(=O)c2ccc(NC(=O)NC3CC3)cc2)cc1,4.27 and 4.29 and 4.42
18,c1nc(N[C@@H](c2ccc3c(c2)OCCO3)[C@@H]2CCN2)c2cc[nH]c2n1,< 4.00
19,O=C(O)C[C@@H](NC(=O)c1ncnc2[nH]ccc12)c1ccc(Nc2nnco2)cc1,5.18 and 5.26
20,CC(C)[C@@H](Nc1ncnc2[nH]ccc12)c1ccc(C(F)(F)F)cc1,4.34 and 4.43
21,c1nc(N[C@@H](c2ccc3c(c2)OCCO3)C2CCCC2)c2cc[nH]c2n1,5.65
22,c1ccc2c(N[C@@H](c3ccc4c(c3)OCCO4)C3CC3)ncnc2c1,< 4.00
23,N#CC[C@@H](NC(=O)c1ncnc2[nH]ccc12)c1ccc(Br)cc1,< 4.00
24,O=C(O)[C@@H](Nc1ncnc2[nH]ccc12)C1CC(F)(F)C1,< 4.00
25,O=C(O)C[C@@H](NC(=O)c1ncnc2[nH]ccc12)c1ccc(NCc2ccno2)cc1,4.95 and 4.88
